Test results: patent EP4509511A1, “SUBSTITUTED SPIRO-ISOXAZOLINYL LACTAMS, SALTS THEREOF AND THEIR USE AS HERBICIDALLY ACTIVE SUBSTANCES” (Bayer Aktiengesellschaft, priority 2023, dated 2025)

What was measured:
[1] = system: ECHCG; assay: Herbicidal pre-emergence action - Part I; type: in vivo, Echinochloa crus-galli; conditions: visual grading after ca. 3 weeks vs untreated controls
From the text: (§1) Seeds of mono- and dicotyledonous weed plants were sown in plastic pots (double sowings with one species of mono- and one species of dicotyledonous weed plants per pot), in sandy loam, and covered with soil. The compounds according to the invention, formulated in the form of wettable powders (WP) or as emulsifiable concentrates (EC), were applied to the surface of the covering soil as aqueous suspension or emulsion, with the addition of 0.5% of an additive, at an application rate of 600 1 of water per hectare (converted). Following treatment, the pots were placed in a greenhouse and kept under optimum growth conditions for the test plants. The visual grading of the damage to the test plants was carried out after ca. 3 weeks in comparison to untreated controls (herbicidaleffectinpercent(%):100%effect=plantshavediedoff,0%effect=ascontrolplants). [formula]
(§2) Tables A1 to A12, below, show the effects of selected compounds of the general formula (I) according to table 1 on various harmful plants and an application rate corresponding to 1280 g/ha or below obtained by the experimental procedure mentioned above. Table A1: pre-emergence activity at 1280g/ha against ABUTH in %

[2] = system: LOLRI; assay: Herbicidal pre-emergence action - Part I; type: in vivo, Lolium rigidum; conditions: 1280 g/ha, visual grading after ca. 3 weeks vs untreated controls
From the text: as §1, §2

[3] = system: MATIN; assay: Herbicidal pre-emergence action - Part I; type: in vivo, Matricaria inodora; conditions: 1280 g/ha, visual grading after ca. 3 weeks vs untreated controls
From the text: as §1, §2

[4] = system: SETVI; assay: Herbicidal pre-emergence action - Part I; type: in vivo, Setaria viridis; conditions: visual grading after ca. 3 weeks vs untreated controls
From the text: as §1, §2

[5] = system: STEME; assay: Herbicidal pre-emergence action - Part I; type: in vivo, Stellaria media; conditions: visual grading after ca. 3 weeks vs untreated controls
From the text: as §1, §2

[6] = system: POAAN; assay: Herbicidal pre-emergence action - Part I; type: in vivo, Poa annua; conditions: visual grading after ca. 3 weeks vs untreated controls
From the text: as §1, §2

[7] = system: AMARE; assay: Herbicidal pre-emergence action - Part I; type: in vivo, Amaranthus retroflexus; conditions: visual grading after ca. 3 weeks vs untreated controls
From the text: as §1, §2

[8] = system: KCHSC; assay: Herbicidal post-emergence action - Part I; type: in vivo, Kochia scoparia; conditions: 1280 g/ha, one-leaf stage, rated visually after about 3 weeks vs untreated controls
Description: (§3) Seeds of mono- and dicotyledonous weed plants were placed in plastic pots in sandy loam soil (doubly sown with in each case one species of mono- or dicotyledonous weed plants per pot), covered with soil and cultivated in a greenhouse under controlled growth conditions. 2 to 3 weeks after sowing, the test plants were treated at the one-leaf stage. The compounds of the invention, formulated in the form of wettable powders (WP) or as emulsion concentrates (EC), were applied onto the green parts of the plants as aqueous suspension or emulsion with addition of 0.5% additive at a water application rate of 600 liters per hectare (converted). After the test plants had been kept in the greenhouse under optimum growth conditions for about 3 weeks, the activity of the preparations was rated visually in comparison to untreated controls. For example, 100% activity = the plants have died, 0% activity = like control plants. Tables B1 to B12, below, show the effects of selected compounds of the general formula (I) according to table 1 on various harmful plants and an application rate corresponding to 1280 g/ha or below obtained by the experimental procedure mentioned above. Table B1a: post-emergence activity at 1280g/ha against ABUTH in %

[9] = system: ABUTH; assay: Herbicidal post-emergence action - Part II; type: in vivo, Abutilon theophrasti
From the text: (§4) Seeds of mono- and dicotyledonous weed plants and crop plants were sown, in plastic or organic planting pots, in sandy loam, covered with soil and grown in a greenhouse under controlled growth conditions. 2 to 3 weeks after sowing, the test plants were sprayed in the single-leaf stage. The compounds according to the invention, formulated in form of wettable powders (WP) or as emulsifiable concentrates (EC), were sprayed onto the green plant parts as aqueous suspension or emulsion, with the addition of 0.5% of an additive, at an application rate of 600 1 of water/ha (converted). The test plants were placed in the greenhouse for ca. 3 weeks under optimum growth conditions, and then the effect of the preparations was assessed visually in comparison with untreated controls (herbicidal effect in percent (%): 100% effect = plants have died off, 0% effect = as control plants). Tables E1 to E10 below show the effects of selected compounds of the general formula (I) according to table 1 on various harmful plants and an application rate corresponding to 320 g/ha or below obtained by the experimental procedure mentioned above. Table E1a: post-emergence activity at 5g/ha against ABUTH in %

[10] = system: AMARE; assay: Herbicidal post-emergence action - Part II; type: in vivo, Amaranthus retroflexus
From the text: as §4

[11] = system: MATIN; assay: Herbicidal post-emergence action - Part II; type: in vivo, Matricaria inodora; conditions: 20 g/ha; Table E4b
From the text: as §4

[12] = system: PHBPU; assay: Herbicidal post-emergence action - Part II; type: in vivo, Pharbitis purpurea
From the text: as §4

[13] = system: POLCO; assay: Herbicidal post-emergence action - Part II; type: in vivo, Polygonum convolvulus; conditions: 20 g/ha; Table E6
From the text: as §4

[14] = system: VERPE; assay: Herbicidal post-emergence action - Part II; type: in vivo, Veronica persica; conditions: 20 g/ha; Table E8b
From the text: as §4

[15] = system: VIOTR; assay: Herbicidal post-emergence action - Part II; type: in vivo, Viola tricolor; conditions: 20 g/ha; Table E9b
From the text: as §4

[16] = system: ZEAMX; assay: Post-emergence effects on crop plants; type: in vivo, Zea mays; conditions: crop plant
From the text: as §4, with “F1” for “E1”, “F5” for “E10”, “crop” for “harmful”, “[…]:” for “E1a:”, “ZEAMX” for “ABUTH”

[17] = system: TRZAS; assay: Post-emergence effects on crop plants; type: in vivo, Triticum aestivum; conditions: crop plant
From the text: as §4, with “F1” for “E1”, “F5” for “E10”, “crop” for “harmful”, “[…]:” for “E1a:”, “ZEAMX” for “ABUTH”

[18] = system: SETVI; assay: Herbicidal post-emergence action - Part II; type: in vivo, Setaria viridis; conditions: 20 g/ha; Table E7b
From the text: as §4

[19] = system: ECHCG; assay: Herbicidal post-emergence action - Part I; type: in vivo, Echinochloa crus-galli; conditions: one-leaf stage, rated visually after about 3 weeks vs untreated controls
Description: as §3

[20] = system: POAAN; assay: Herbicidal post-emergence action - Part I; type: in vivo, Poa annua; conditions: 1280 g/ha, one-leaf stage, rated visually after about 3 weeks vs untreated controls
Description: as §3

[21] = system: AMARE; assay: Herbicidal post-emergence action - Part I; type: in vivo, Amaranthus retroflexus; conditions: 1280 g/ha, one-leaf stage, rated visually after about 3 weeks vs untreated controls
Description: as §3

[22] = system: VERPE; assay: Herbicidal post-emergence action - Part I; type: in vivo, Veronica persica; conditions: 1280 g/ha, one-leaf stage, rated visually after about 3 weeks vs untreated controls
Description: as §3

[23] = system: KCHSC; assay: Herbicidal pre-emergence action - Part I; type: in vivo, Kochia scoparia; conditions: Table A10a, 1280 g/ha, visual grading after ca. 3 weeks vs untreated controls
From the text: as §1, §2

[24] = system: DIGSA; assay: Herbicidal pre-emergence action - Part I; type: in vivo, Digitaria sanguinalis; conditions: visual grading after ca. 3 weeks vs untreated controls
From the text: as §1, §2

[25] = system: SETVI; assay: Herbicidal post-emergence action - Part I; type: in vivo, Setaria viridis; conditions: 1280 g/ha, one-leaf stage, rated visually after about 3 weeks vs untreated controls
Description: as §3

[26] = system: STEME; assay: Herbicidal post-emergence action - Part I; type: in vivo, Stellaria media; conditions: one-leaf stage, rated visually after about 3 weeks vs untreated controls
Description: as §3

Compound	pre-emergence activity at 1280g/ha against ECHCG in % [1] [%]	pre-emergence activity at 1280g/ha against LOLRI in % [2] [%]	pre-emergence activity at 1280g/ha against MATIN in % [3] [%]	pre-emergence activity at 1280g/ha and against SETVI in % [4] [%]	pre-emergence activity at 320g/ha against STEME in % [5] [%]	pre-emergence activity at 1280g/ha against STEME in % [5] [%]	pre-emergence activity at 1280g/ha and against POAAN in % [6] [%]	pre-emergence activity at 1280g/ha against AMARE in % [7] [%]	post-emergence activity at 1280g/ha against KCHSC in % [8] [%]	post-emergence activity against ABUTH ([9]; 20 g/ha, Table E1b) [%]	post-emergence activity against AMARE ([10]; 5 g/ha, Table E2a) [%]	post-emergence activity against AMARE ([10]; 20 g/ha, Table E2b) [%]	post-emergence activity against MATIN [11] [%]	post-emergence activity against PHBPU ([12]; 5 g/ha, Table E5a) [%]	post-emergence activity against PHBPU ([12]; 20 g/ha, Table E5b) [%]	post-emergence activity against VERPE [14] [%]	post-emergence activity against VIOTR [15] [%]	post-emergence activity against ZEAMX ([16]; 5 g/ha, Table F1a) [%]	pre-emergence activity at 320g/ha and against POAAN in % [6] [%]	post-emergence activity at 1280g/ha against AMARE in % [21] [%]	also measured
Cc1ccsc1C1=NOC2(CCN(Cc3ccccc3F)C2=O)C1 (racemic) [Compound I-17, 7-(2-Fluorobenzyl)-3-(3-methyl-2-thienyl)-1-oxa-2,7-diazaspiro[4.4]non-2-en-6-one]	90	100	90	100	90	100	100	90	90												pre-emergence activity at 80g/ha against STEME in % ([5]; 80 g/ha): 90%
COC(=O)CN1CCCC2(CC(c3cc(-n4c(=O)cc(C(F)(F)F)n(C)c4=O)c(F)cc3Cl)=NO2)C1=O (racemic) [Compound I-57]										100	100	100	100	100	100	100	100	20			post-emergence activity against POLCO [13]: 100%; post-emergence activity against ZEAMX ([16]; 20 g/ha, Table F1b): 20%; post-emergence activity against TRZAS ([17]; 5 g/ha, Table F2a): 20%; post-emergence activity against TRZAS ([17]; 20 g/ha, Table F2b): 20%
Cn1c(C(F)(F)F)cc(=O)n(-c2cc(C3=NOC4(CCCNC4=O)C3)c(Cl)cc2F)c1=O (racemic) [Compound I-67]										100	100	100	100	100	100	80	100	20			post-emergence activity against ABUTH ([9]; 5 g/ha, Table E1a): 80%; post-emergence activity against SETVI [18]: 80%; post-emergence activity against TRZAS ([17]; 5 g/ha, Table F2a): 20%
Cc1ccccc1CN1CCCC2(CC(c3sccc3C)=NO2)C1=O (racemic) [Compound I-4, 7-(2-Methylbenzyl)-3-(3-methyl-2-thienyl)-1-oxa-2,7-diazaspiro[4.5]dec-2-en-6-one]				90			100												100	90	post-emergence activity at 1280g/ha against ECHCG in % [19]: 90%; post-emergence activity at 1280g/ha against POAAN in % [20]: 90%; post-emergence activity at 1280g/ha against VERPE in % [22]: 90%
Cc1ccsc1C1=NOC2(CCCN(Cc3cccc(F)c3F)C2=O)C1 (racemic) [Compound I-3, 7-(2,3-Difluorobenzyl)-3-(3-methyl-2-thienyl)-1-oxa-2,7-diazaspiro[4.5]-dec-2-en-6-one]	100	100	90	100	90	90	100	90	90										100	90	pre-emergence activity at 320g/ha against ECHCG in % ([1]; 320 g/ha): 100%; pre-emergence activity at 320g/ha and against SETVI in % ([4]; 320 g/ha): 100%; pre-emergence activity at 1280g/ha against KCHSC in % [23]: 90%; pre-emergence activity at 320g/ha against DIGSA in % ([24]; 320 g/ha): 90%; pre-emergence activity at 1280g/ha against DIGSA in % [24]: 100%; post-emergence activity at 320g/ha against ECHCG in % ([19]; 320 g/ha): 90%; post-emergence activity at 1280g/ha against ECHCG in % [19]: 90%; post-emergence activity at 1280g/ha against SETVI in % [25]: 90%; post-emergence activity at 1280g/ha against POAAN in % [20]: 90%; post-emergence activity at 1280g/ha against VERPE in % [22]: 90%
O=C1N(Cc2c(F)cccc2F)CCC12CC(c1ccccc1F)=NO2 (racemic) [Compound I-27, 7-(2,6-Difluorobenzyl)-3-(2-fluorophenyl)-1-oxa-2,7-diazaspiro[4.4]non-2-en-6-one]	100		90	90	90	90	100	90											100	90	pre-emergence activity at 320g/ha against AMARE in % ([7]; 320 g/ha): 90%; pre-emergence activity at 1280g/ha against KCHSC in % [23]: 90%; pre-emergence activity at 1280g/ha against DIGSA in % [24]: 90%; post-emergence activity at 320g/ha against STEME in % ([26]; 320 g/ha): 90%; post-emergence activity at 1280g/ha against STEME in % ([26]; 1280 g/ha): 90%
